Measured values reported in paper PMC7984888, “Inhibitory Activity of Pyrroloisoxazolidine Derivatives against Chlamydia trachomatis” (BioMed Research International, 2021).
Like-named read-outs stand apart in the source and are kept apart here.

Columns and labels:
[1] = tested on: Chlamydia trachomatis serovar D (strain UW-3/CX); test: Infectious progeny inhibition assay, C. trachomatis D; format: cell-based; conditions: generation of infectious progeny EBs in HeLa cells, MOI 0.2, 36 hpi, 1 to 32 μM, read-out: IC50 (μM) Mean (95% confidence interval) Ct D
Method: (§1) Chlamydia trachomatis serovars D (strain UW-3/CX) and L2 (strain 434/Bu) were purchased from ATCC. HeLa cells purchased from ATCC were routinely cultured in DMEM supplemented with 10% heat-inactivated FBS (Sigma-Aldrich) and 10 μg/mL gentamicin at 37°C in a humidified atmosphere of 5% and were used for chlamydial propagation and cell culture experiments. EBs were purified by Renografin density gradient and stored in sucrose-phosphate-glutamate (SPG) buffer at -80°C [20]. A mouse polyclonal anti-MoPn (C. muridarum strain Nigg II) antibody, which was produced in our laboratory and cross-reacting with C. trachomatis D and L2, was used as a primary antibody for both stains detection.
(§2) Cell monolayers seeded onto coverslips in a 24-well plate were infected with C. trachomatis at a multiplicity of infection (MOI) of 0.2 inclusion-forming units (IFU) per cell. Unless noted, individual compound was added into culture medium at indicated concentrations simultaneously at the time of inoculation. 0.5% DMSO was used as negative control and 11.25 μM tetracycline (Sigma-Aldrich) as positive control. For C. trachomatis D, an additional centrifugation (900 × g at room temperature for 1 h) was applied to facilitate the infection. At 36 hours postinfection (hpi), infected cells were fixed by precooled methanol and then subjected to sequential staining processed with a primary antibody and a FITC-conjugated secondary antibody. Evans blue was used as cytoplasm counterstain. Images were shot by an Olympus IX51 fluorescence microscope.
(§3) Cells monolayers seeded in 48-well plate were infected and treated with chemicals as above. After incubation for 36 hours, infected cells were washed twice, scraped off, and lysed by sonication to release the infectious progeny EBs. Then the lysates were used to reinfect fresh cell monolayers grown in 96-well plate following 1 : 10 serial dilution. The inclusion counts were obtained by immunofluorescence staining as above to calculate the number of infectious progeny EBs in each sample. Percent inhibition was calculated based on EB counts in compound-treated samples relative to DMSO-treated negative control.
(§4) Data from the three independent experiments were presented as mean ± standard deviations (SD) and were subjected to pairwise Student's t-tests. p < 0.05 and p < 0.01 are considered statistically significant and statistically highly significant, respectively. The IC50 values, defined as the concentration of compound at which the generation of infectious progeny EBs was reduced by 50% relative to negative control, were calculated by nonlinear regression from percent inhibition data using the GraphPad Prism 5 software, and presented as mean (95% confidence interval).

[2] = tested on: Chlamydia trachomatis serovar L2 (strain 434/Bu); test: Infectious progeny inhibition assay, C. trachomatis L2; format: cell-based
Method: as §1, §2, §3, §4

Uninfected HeLa cells [3] = test: Host cell cytotoxicity (morphology, nuclear integrity, cell count); format: cell-based; conditions: 48 h, Evans blue, DAPI, cell counting
Method: Uninfected HeLa cells were cultured with indicated concentration of individual compound or 0.5% DMSO. Forty-eight hours later, cells were fixed with methanol and stained with Evans blue for morphology or DAPI for nuclear integrity. Otherwise, at 48 h later, cells were detached and enumerated by a hemacytometer.  Figure 2 Lack of cytotoxicity of compounds 1 and 2 on HeLa cells. Uninfected HeLa cells were cultured with medium containing various concentrations of individual compound or 0.5% DMSO for 48 h. (a) The cellular morphology was stained with Evans blue, and cell nucleus was stained with DAPI. (b) The cells were enumerated by a hemacytometer. Data are presented as mean ± SD of three independent assays.

WST-1 cell viability = format: cell-based; conditions: human, uninfected HeLa cells, WST-1, relative to DMSO control as 100%
Method: (§5) Uninfected HeLa cells were cultured with 32 μM (the highest concentration used in antichlamydial analysis) of individual compound or 0.5% DMSO for 48 h. After 10 μL of WST-1 reagent was added, cells were incubated for an additional 1 h, and absorbance at 450 nm was recorded. The viability of compound-treated cells was calculated by the absorbance relative to that of DMSO control setting as 100% [22].

Uninfected HeLa cells [4] = test: WST-1 cell viability; format: cell-based; conditions: 32 μM, 48 h
Method: as §5

C. trachomatis L2 = test: Inclusion body immunofluorescence staining; format: cell-based, Chlamydia trachomatis; conditions: for Inclusions at the highest concentration: 32 μM, C. trachomatis L2, HeLa cells, 36 hpi; for Formation (number) and growth (size) of C. trachomatis L2 inclusions: HeLa cells, MOI 0.2, 36 hpi, compared with 0.5% DMSO
Method: Cell monolayers seeded onto coverslips in a 24-well plate were infected with C. trachomatis at a multiplicity of infection (MOI) of 0.2 inclusion-forming units (IFU) per cell. Unless noted, individual compound was added into culture medium at indicated concentrations simultaneously at the time of inoculation. 0.5% DMSO was used as negative control and 11.25 μM tetracycline (Sigma-Aldrich) as positive control. For C. trachomatis D, an additional centrifugation (900 × g at room temperature for 1 h) was applied to facilitate the infection. At 36 hours postinfection (hpi), infected cells were fixed by precooled methanol and then subjected to sequential staining processed with a primary antibody and a FITC-conjugated secondary antibody. Evans blue was used as cytoplasm counterstain. Images were shot by an Olympus IX51 fluorescence microscope. […] At the highest concentration of 32 μM, inclusions were few and tiny, analogous to the positive control tetracycline (final concentration, 11.25 μM). In addition, the reduction on the production of progeny EBs was consistent with that of the inclusion number and size (Figure 1(b)). The direct inhibitory effect was also analyzed for C. trachomatis D. Happened as expected, changes in inclusion size and number and the progeny production that response to both chemicals are highly similar to those observed for C. trachomatis L2, with slightly weaker effect (Figures 1(a) and 1(c)).  Figure 1 Inhibition effect of compounds 1 and 2 on C. trachomatis. HeLa cells were infected with C. trachomatis L2 or D at an MOI of 0.2 in the presence of 0.5% DMSO, 11.25 μM tetracycline, or various concentrations of individual compound. Cells were either fixed or lysed for determination of infectious progeny EBs at 36 hpi. (a) Representative immunofluorescence microscopy images (scale bar = 100 μm). Inclusions were stained with a polyclonal anti-MoPn antibody that cross-reacts with C. trachomatis L2 and D (green), and cells were counterstained with Evans blue (red). (b, c) The percent inhibition of production of infectious progeny EBs was calculated based on data in compound-treated samples relative to DMSO-treated control. Data are presented as mean ± SD of three independent assays.

[5] = Chlamydia trachomatis, HeLa, generation of infectious progeny EBs in HeLa cells, MOI 0.2, 36 hpi, 1 to 32 μM, read-out: IC50 (μM) Mean (95% confidence interval) Ct L2
[6] = Chlamydia trachomatis, text statements over both strains (L2 and D), infectious progeny EBs, read-out: IC50 values, statement covering both C. trachomatis L2 and D
[7] = generation of infectious progeny EBs in HeLa cells, MOI 0.2, 36 hpi, 1 to 32 μM, read-out: IC50 (μM) Mean (95% confidence interval) Ct L2

Row | Compound | IC50 ([1]; Chlamydia trachomatis, HeLa) [µM] | IC50 [1] [µM] | IC50 [2, 5] [µM] | IC50 [2, 6] [µM] | IC50 [2, 7] [µM] | Cytotoxic activity on host cells (morphology, nuclear integrity, cell proliferation) (Uninfected HeLa cells [3]) | viability at 48 h, 32 µM (WST-1 cell viability) [%] | Effect on host cell viability / proliferation activity by WST-1, in words (Uninfected HeLa cells [4]) | Inclusions at the highest concentration (C. trachomatis L2) | Formation (number) and growth (size) of C. trachomatis L2 inclusions (C. trachomatis L2)
1 | c1ccc(C2C3CC(c4ccccc4)N(c4ccccc4)C3ON2c2ccccc2)cc1 (centres unmarked) [Compound 1] | < 10 | 9.31 | < 10 | 7.25 to 9.73 | 7.25 | No substantial cytotoxic activity | 101 | did not show cytotoxicity | few and tiny | inhibited the formation (number) and growth (size)
2 | Clc1ccc(N2C(c3ccccc3)CC3C(c4ccccc4)N(c4ccccc4)OC32)cc1 (centres unmarked) [Compound 2] | < 10 | 9.73 | < 10 | 7.25 to 9.73 | 8.69 | No substantial cytotoxic activity | 98.3 | did not show cytotoxicity | few and tiny | inhibited the formation (number) and growth (size)
